These are literature values, as cited in patent US20220305055A1, “PHARMACEUTICAL CO[…]” (Zincum, Inc., priority 2016, published 2022).

For this data set, the system named is diabetic rats. To be noted: zinc chloride administered.

Structures are written as SMILES.

Take `[Cl-].[Cl-].[Zn+2]` [zinc chloride]: the hyperglycemia result is reported as “hyperglycemia improved”.
